Among the data in ChEMBL document CHEMBL1148208, “Aureoverticillactam, a novel 22-atom macrocyclic lactam from the marine actinomycete Streptomyces aureoverticillatus” (J Nat Prod, 2004) are EC50 values, retold here.

Holding throughout (assay type): functional, cell-based
One experiment relates to B16-F10. Briefly: Cytotoxicity against mouse B16F10 cells after 48 hrs. The settings on record: B16-F10, 48 h.
Another experiment relates to Jurkat. Briefly: Cytotoxicity against human Jurkat cells after 48 hrs.
Another experiment concerns HT-29. Kind of experiment: Cytotoxicity against human HT29 cells after 48 hrs. As to conditions: HT-29, 48 h.

A word on the EC50: it is the concentration giving half of the maximal effect. Read a high EC50 as weaker potency. For `CCC/C=C/CC1C/C=C/C=C(C)/C=C/C=C\C(O)CC(O)C(O)/C=C/C=C/C=C/C(=O)N1` (stereo not drawn) [AUREOVERTICILLACTAM], the EC50 in the experiment on B16-F10 was determined as 2200 nM; in the experiment with Jurkat, 2300 nM; in the experiment with HT-29, 3600 nM.
